Key:
Assay in all cases: relative viability (nuclei count vs DMSO), 5 days (fraction); higher = more cells survive
CUDC-101 + AZD7762 = compound: C#Cc1cccc(Nc2ncnc3cc(OC)c(OCCCCCCC(=O)NO)cc23)c1 [CUDC-101] + NC(=O)Nc1cc(-c2cccc(F)c2)sc1C(=O)N[C@H]1CCCNC1 [AZD7762] (partner 0.2 µM)
Summary of the method: (§1)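 Each reported value is a median over duplicate plates. It expresses relative viability: treated-well nuclei count divided by vehicle-well nuclei count. Lung cancer cell lines in 1536-well plates were dosed by pin tool a day after seeding, alone with one drug or with a fixed anchor-drug dose plus five library-drug doses (not always all listed) in √10 steps, and nuclei were counted after 5 days.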

[1] = compound: C1=CC=C2C(=C1)N=C(S2)C(C#N)C3=NC(=NC=C3)NCCC4=CN=CC=C4 + NC(=O)Nc1cc(-c2cccc(F)c2)sc1C(=O)N[C@H]1CCCNC1 [AZD7762] (partner 0.2 µM)
Summary of the method: as §1

CUDC-101 + Tozasertib = compound: C#Cc1cccc(Nc2ncnc3cc(OC)c(OCCCCCCC(=O)NO)cc23)c1 [CUDC-101] + Cc1cc(Nc2cc(N3CCN(C)CC3)nc(Sc3ccc(NC(=O)C4CC4)cc3)n2)n[nH]1 [Tozasertib] (partner 0.1 µM)
Summary of the method: as §1

CUDC-101 + Alpelisib = compound: C#Cc1cccc(Nc2ncnc3cc(OC)c(OCCCCCCC(=O)NO)cc23)c1 [CUDC-101] + Cc1nc(NC(=O)N2CCC[C@H]2C(N)=O)sc1-c1ccnc(C(C)(C)C(F)(F)F)c1 [Alpelisib] (partner 2 µM)
Summary of the method: as §1

| Cell Line | relative viability (CUDC-101 + AZD7762; first compound 0.01 µM) | relative viability (CUDC-101 + AZD7762; first compound 0.03162 µM) | relative viability (CUDC-101 + AZD7762; first compound 0.1 µM) | relative viability (CUDC-101 + AZD7762; first compound 0.3162 µM) | relative viability (CUDC-101 + AZD7762; first compound 1 µM) | relative viability ([1]; first compound 0.005 µM) | relative viability ([1]; first compound 0.01581 µM) | relative viability ([1]; first compound 0.05 µM) | relative viability ([1]; first compound 0.1581 µM) | relative viability ([1]; first compound 0.5 µM) | relative viability (CUDC-101 + Tozasertib; first compound 0.01 µM) | relative viability (CUDC-101 + Tozasertib; first compound 0.03162 µM) | relative viability (CUDC-101 + Tozasertib; first compound 0.1 µM) | relative viability (CUDC-101 + Tozasertib; first compound 0.3162 µM) | relative viability (CUDC-101 + Tozasertib; first compound 1 µM) | relative viability (CUDC-101 + Alpelisib; first compound 0.01 µM) | relative viability (CUDC-101 + Alpelisib; first compound 0.03162 µM) | relative viability (CUDC-101 + Alpelisib; first compound 0.1 µM) | relative viability (CUDC-101 + Alpelisib; first compound 0.3162 µM) | relative viability (CUDC-101 + Alpelisib; first compound 1 µM) |
| --- | --- | --- | --- | --- | --- | --- | --- | --- | --- | --- | --- | --- | --- | --- | --- | --- | --- | --- | --- | --- |
| HCC-827 | 0.206 | 0.145 | 0.13 | 0.117 | 0.113 | 0.201 | 0.176 | 0.225 | 0.235 | 0.19 | 0.381 | 0.236 | 0.143 | 0.111 | 0.101 | 0.958 | 0.27 | 0.224 | 0.187 | 0.179 |
| HOP-62 | 0.61 | 0.448 | 0.447 | 0.424 | 0.294 | 0.271 | 0.824 | 0.705 | 0.542 | 0.534 | 0.343 | 0.379 | 0.399 | 0.405 | 0.321 | 0.777 | 0.792 | 1.11 | 1.05 | 0.741 |
| IA-LM |  |  |  |  |  |  |  |  |  |  |  |  |  |  |  | 0.676 | 0.769 | 0.678 | 0.745 | 0.388 |
| LC-2-ad | 0.904 | 0.858 | 0.824 | 0.778 | 0.581 | 0.674 | 0.847 | 0.83 | 0.968 | 0.692 | 0.445 | 0.47 | 0.449 | 0.326 | 0.276 | 0.896 | 0.908 | 0.844 | 0.73 | 0.433 |
| LCLC-97TM1 | 0.264 | 0.211 | 0.343 | 0.305 | 0.248 | 0.153 | 0.192 | 0.342 | 0.291 | 0.21 | 0.197 | 0.357 | 0.152 | 0.195 | 0.104 | 0.261 | 0.266 | 0.235 | 0.233 | 0.15 |
| LCLC-103H | 0.674 | 0.739 | 0.761 | 0.877 | 0.675 | 0.849 | 0.784 | 0.804 | 0.929 | 0.779 | 0.54 | 0.494 | 0.485 | 0.418 | 0.322 | 0.93 | 0.95 | 1.01 | 1.02 | 0.953 |
| LK-2 | 0.508 | 0.422 | 0.336 | 0.263 | 0.0851 | 0.347 | 0.41 | 0.488 | 0.454 | 0.445 | 0.149 | 0.222 | 0.185 | 0.195 | 0.139 | 1.08 | 0.959 | 1.09 | 1.05 | 0.647 |
| NCI-H520 |  |  |  |  |  |  |  |  |  |  | 0.443 | 0.434 | 0.449 | 0.401 | 0.304 | 1.09 |  | 0.791 | 0.706 | 0.373 |
| NCI-H522 | 0.932 | 0.753 | 0.791 | 0.75 | 0.689 | 0.885 | 0.654 | 0.768 | 0.787 | 0.839 | 0.602 | 0.53 | 0.539 | 0.528 | 0.366 |  |  |  |  |  |
| NCI-H661 |  |  |  |  |  |  |  |  |  |  | 0.356 | 0.331 | 0.362 | 0.342 | 0.248 | 0.792 | 0.609 | 0.794 | 0.575 | 0.595 |

— the supplement of paper PMC10307832
